pEC50: −log10 of the molar value.
What follows are compounds tested on Hepatitis C replicon (assay: HCV replicon replication assay (NPT level by captured ELISA)). Details: Hepatitis C virus, Huh-7, 72 h.
Assay type: cell-based
Procedure: Compounds claimed herein are tested for the ability to inhibit viral replication of the Hepatitis C replicon in cultured cells in which the HCV replicon construct has been incorporated. The HCV replicon system was described by Bartenschlager, et. al (Science, 285, pp. 110-113 (1999)). The replicon system is predictive of in vivo anti-HCV activity; compounds that are active in humans uniformly evidence activity in the replicon assay.
In this assay HCV replicon containing cells are treated with different concentrations of the test compound to ascertain the ability of the test compound to suppress replication of the HCV replicon. As a positive control, HCV replicon-containing cells are treated with different concentrations of interferon alpha, a known inhibitor of HCV replication. The replicon assay system includes Neomycin Phosphotransferase (NPT) as a component of the replicon itself in order to detect the transcription of replicon gene products in the host cell. Cells in which the HCV replicon is actively replicating have high levels of NPT; the level of NPT is proportional to HCV replication. […] The NPT level of each sample is measured using a captured ELISA.
A protocol for testing compounds for the ability to inhibit viral replication of the Hepatitis C replicon cultured cells in which the replicon construct has been incorporated, follows.
The HCV genome consists of a single ORF that encodes a 3000 amino acid polyprotein. The ORF is flanked on the 5′ side by an untranslated region that serves as an internal ribosome entry site (IRES) and at the 3′ side by a highly conserved sequence necessary for viral replication (3′-NTR). The structural proteins, necessary for viral infection, are located near the 5′ end of the ORF. The non-structural proteins, designated NS2 to NS5B comprise the remainder of the ORF. […]
HCV replicon-containing cells are examined under a microscope to ensure that cells growing well. […] The cells are counted. […]

Structure (SMILES)	pEC50
COC(=O)N[C@H](C(=O)N1C2CCC(C2)[C@H]1c1nc(-c2ccc(-c3ccc(-c4c[nH]c([C@@H]5CC6CCCCC6N5C(=O)[C@@H](NC(=O)OC)C(C)C)n4)cc3)s2)c[nH]1)C(C)C (stereo partly drawn) [Compound 15]	> 8.00
COC(=O)N[C@H](C(=O)N1C2CCC(C2)[C@H]1c1nc(-c2ccc(-c3ccc(-c4c[nH]c([C@@H]5CC6CCCCC6N5C(=O)[C@@H](NC(=O)OC)C(C)C)n4)cc3)cc2)c[nH]1)C(C)C (stereo partly drawn) [Compound 10]	> 8.00
COC(=O)N[C@H](C(=O)N1C2CCC(C2)[C@H]1c1nc(-c2ccc(-c3ccc(-c4c[nH]c([C@@H]5CC6CCCCC6N5C(=O)[C@@H](NC(=O)OC)C(C)C)n4)cc3)nc2)c[nH]1)C(C)C (stereo partly drawn) [Compound 14]	> 8.00

Reference: patent publication US8835456B1, “NS5A inhibitors useful for treating HCV” (Achillion Pharmaceuticals, Inc., priority 2011, dated 2014)
